# Tests used:
# Type in all cases: cell-based
# [1] = test system: human PBMC; assay: ELISA of IL-32-induced TNF-α and IL-1β production in PBMC (ex-vivo)
# Source text: In order to confirm these activities in a physiologically relevant system, we evaluated the impact of the peptide in an ex-vivo assay using human PBMC, because cells recruited from the circulation are a major component of inflammatory infiltrates. Venous blood was collected from healthy volunteers with informed consent in accordance to a protocol approved by the Institutional Review Board at the University of Manitoba. PBMC was isolated from blood following the teaching of Mookherjee et al. (2009, Systems biology evaluation of immune responses induced by human host defence peptide LL-37 in mononuclear cells. Mol. Biosyst. 5:483-496). PBMC were stimulated with chronic inflammatory cytokine IL-32 (20 ng/ml) in the presence and absence of 5 μM of peptides, LL-37 and its derivatives (Table 7) for 24 hr. The tissue culture supernatants were monitored for the production of pro-inflammatory cytokines TNF-α and IL-1β by ELISA. […] Results shown are an average of four independent biological experiments performed with cells isolated from blood of four different donors ±standard error.
# [2] = test system: Human macrophage-like THP-1 cells; assay: qRT-PCR of cytokine-induced gene expression in THP-1 cells
# Experimental: Quantitative real-time PCR (qRT-PCR): Human FLS or monocytic THP-1 cells were stimulated with indicated stimulants for 4 hr. RNA was isolated and analyzed for gene expression by qRT-PCR using SuperScript III Platinum Two-Step qRT-PCR Kit with SYBR Green (Invitrogen), according to the manufacturer's instructions, in the ABI PRISM 7000 sequence detection system (Applied Biosystems). Fold changes were calculated using the comparative Ct method, after normalization using 18S rRNA primers.
# Quantitative real-time PCR (qRT-PCR): Human FLS or macrophage-like THP-1 cells were stimulated with indicated stimulants for 4 hr. RNA was isolated and analyzed for gene expression by qRT-PCR using SuperScript III Platinum Two-Step qRT-PCR Kit with SYBR Green (Invitrogen), according to the manufacturer's instructions, in the ABI PRISM 7000 sequence detection system (Applied Biosystems). Fold changes were calculated using the comparative Ct method, after normalization using 18S rRNA primers.
# [3] = test system: Human macrophage-like THP-1 cells; assay: ELISA of cytokine/chemokine production in THP-1 tissue culture supernatants; details: both monocytic THP-1 and human FLS cells, data not shown
# [4] = test system: Human fibroblast-like synovial (FLS) cells; assay: qRT-PCR of cytokine-induced gene expression in FLS cells; details: some of the responses
# Experimental: Cell culture and isolation: Human fibroblast-like synovial (FLS) cells were isolated from synovial tissues obtained from patients […]. Briefly, the tissues were digested with 1 mg/ml collagenase and 0.05 mg/ml hyaluronidase (both obtained from Sigma; Oakville, ON, Canada) in Hanks' balanced salt solution (Gibco) for 1-2 hours at 37° C. The cells were cultured in DMEM media (Gibco) supplemented with sodium pyruvate and non-essential amino acids (referred to as complete DMEM media henceforth), containing […] in a humidified incubator at 37° C. and 10% CO2. […] Cellular cytotoxicity was evaluated after 24 hr stimulation with the various stimulants used in this study by monitoring the release of lactate dehydrogenase (LDH) employing a colorimetric detection kit (Roche Diagnostics, Laval, QC, Canada).
# Quantitative real-time PCR (qRT-PCR): Human FLS or monocytic THP-1 cells were stimulated with indicated stimulants for 4 hr. RNA was isolated and analyzed for gene expression by qRT-PCR using SuperScript III Platinum Two-Step qRT-PCR Kit with SYBR Green (Invitrogen), according to the manufacturer's instructions, in the ABI PRISM 7000 sequence detection system (Applied Biosystems). Fold changes were calculated using the comparative Ct method, after normalization using 18S rRNA primers. […]
# [5] = test system: Human macrophage-like THP-1 cells; assay: ELISA of cytokine/chemokine production in THP-1 tissue culture supernatants
# Experimental: ELISA immunoassay: Tissue culture supernatants were centrifuged at 1500× g for 5-7 min to obtain cell-free samples and the aliquots were stored at −20° C. until further use. Production of chemokine Gro-α was monitored in the tissue culture supernatants by ELISA employing human Gro-α DuoSet (R&D Systems Inc.) as per the manufacturer's instructions. Production of cytokine TNF-α was monitored in the tissue culture supernatants using specific antibody pairs from eBioscience, Inc., and production of IL-8 was monitored using specific antibody pairs from R&D Systems, Inc., as per the manufacturer's instructions. The concentration of the cytokines or chemokines in the tissue culture supernatants was evaluated by establishing a standard curve with serial dilutions of the recombinant human cytokines or chemokines as required.
# ELISA immunoassay: Tissue culture supernatants were centrifuged at 1500× g for 5-7 min to obtain cell-free samples and the aliquots were stored at −20° C. until further use. Production of chemokine Gro-α was monitored in the tissue culture supernatants by ELISA employing human Gro-α DuoSet (R&D Systems Inc.) per the manufacturer's instructions. Production of cytokine TNF-α was monitored in the tissue culture supernatants using specific antibody pairs from eBioscience, Inc., and production of IL-8 was monitored using specific antibody pairs from R&D Systems, Inc., per the manufacturers' instructions. The concentrations of the cytokines or chemokines in the tissue culture supernatants were evaluated by establishing a standard curve with serial dilutions of the recombinant human cytokines or chemokines as required.
# Impact of cationic peptide LL-37 and its synthetic derivatives on IL-32-induced protein production: Human macrophage-like THP-1 cells were stimulated with IL-32 (20 ng/mL) in the presence and absence of cationic peptide LL-37, tissues culture supernatants were monitored for the production of pro-inflammatory cytokines TNF-α and IL-1β, and chemokines after 24 hr of stimulation. […] As LL-37 suppressed IL-32-mediated pro-inflammatory responses, we also evaluated the impact of LL-37 derived synthetic peptides. […] No studies to data have explored the impact of these peptides in the context of chronic inflammation. […] This provides the data that supports further investigation of these peptide candidates as potential therapeutics for diseases characterized by chronic inflammation.
# [6] = THP-1 cells, in the presence of the peptide
# [7] = THP-1 cells, in the presence of the peptide, p<0.01
# [8] = macrophage-like THP-1 cells, IL-32 20 ng/mL, 24 hr
substance,measurement,setting,value
"LL-37: Human cathelicidin cationic host defence peptide, SEQ ID NO: 21, LLGDFFRKSKEKIGKEFKRIVQRIKDFLRNLVPRTES",Effect on IL-32-induced IL-1β production,"[1]; human PBMC, IL-32 20 ng/ml, 5 μM peptide, 24 hr",neutralized
same,Effect on IL-32-induced TNF-α production,"[1]; human PBMC, IL-32 20 ng/ml, 5 μM peptide, 24 hr, p<0.05",neutralized
same,Effect on IL-32 induced pro-inflammatory protein production (FIG. 21 legend),[1]; peripheral blood mononuclear cells,suppression
same,Suppression of IL-32-induced IL-8 (CXCL8) expression,[2]; [6],30-40%
same,Suppression of IL-32-induced IL-23 expression,[2]; [6],30-40%
same,Suppression of IL-32-induced NF-κB1A expression,[2]; [6],30-40%
same,Suppression of IL-32-induced Gro-α (CXCL1) gene expression,[2]; [7],> 50%
same,Suppression of IL-32-induced IL-6 gene expression,[2]; [7],> 50%
same,Suppression of IL-32-induced TNF-α gene expression,[2]; [7],> 50%
same,Effect on IL-17-induced expression of pro-inflammatory genes or chemokine genes,"[2]; human monocytic cells / macrophages, data not shown",not altered
same,Effect on IL-17-induced chemokine production,[3],not significantly altered (or modestly enhanced)
same,Effect on IL-17-induced transcriptional responses,[4],significantly enhanced
same,Suppression of IL-32-induced TNF-α production,"[5]; THP-1 monocytic cells, ELISA after 24 or 48 hr",> 30%
same,Suppression of IL-32-induced chemokine Gro-α production,"[5]; THP-1 monocytic cells, ELISA after 24 or 48 hr, p<0.05",12±4%
same,Effect on IL-32-induced IL-1β production,[5]; [8],significantly suppressed
same,Effect on IL-32-induced TNF-α production,[5]; [8],significantly suppressed
same,"Effect on IL-32-induced chemokine production (IL-8, GROα)",[5]; [8],not altered

# Source: patent US20130123201A1, “MODULATION OF CYTOKINE-INDUCED CHRONIC INFLAMMATORY RESPONSES” (UNIVERSITY OF MANITOBA, priority 2010, published 2013)
